In experiment [1] the target is T1, human GIP receptor (hGIPR) (Homo sapiens, UniProt P48546).
T1 construct: expressed in transfected cells; crude membranes
T1 sequence (P48546 22-466): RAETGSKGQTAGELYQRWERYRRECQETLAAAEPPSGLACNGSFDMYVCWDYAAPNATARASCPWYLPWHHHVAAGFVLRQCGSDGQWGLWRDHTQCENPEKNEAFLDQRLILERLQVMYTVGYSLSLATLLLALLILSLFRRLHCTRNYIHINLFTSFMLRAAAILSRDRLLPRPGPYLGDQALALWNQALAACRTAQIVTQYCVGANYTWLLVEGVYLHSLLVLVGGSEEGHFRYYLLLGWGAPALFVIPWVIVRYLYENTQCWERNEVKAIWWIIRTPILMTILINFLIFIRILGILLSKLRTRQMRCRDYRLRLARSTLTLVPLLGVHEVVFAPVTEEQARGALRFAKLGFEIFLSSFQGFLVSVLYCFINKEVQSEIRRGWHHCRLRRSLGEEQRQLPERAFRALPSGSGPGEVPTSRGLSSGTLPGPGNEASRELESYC
The experiment in a line: [125I]-GIP binding, SPA with membranes of CHO cells expressing hGIPR.

The target in a further experiment is T2, hGCGR (Homo sapiens, UniProt P47871).
T2 construct: expressed in transfected cells
The experiment in a line: Functional cAMP formation (HTRF) in HEK-293 clonal cells expressing hGCGR, 0.1% bovine casein, without or with 1.0% human serum albumin. The class given is cell-based. Put shortly: (§1)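 Cells were stimulated with peptide for 30 min at 37° C, then intracellular cAMP was measured by competitive HTRF (665/620 nm ratio) and converted to nM using a cAMP standard curve. Relative EC50 and Emax came from four-parameter logistic fits of percent maximal response against peptide concentration.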
For orientation: Changes in cAMP serve as a functional read-out for many G protein-coupled receptors.

Another experiment has as its target T3, hGIPR (Homo sapiens, UniProt P48546).
T3 construct: expressed in transfected cells
T3 sequence (P48546 22-466): T1 sequence (P48546 22-466)
The experiment in a line: Functional cAMP formation (HTRF) in HEK-293 clonal cells expressing hGIPR, 0.1% bovine casein, without or with 1.0% human serum albumin. The experiment is classed as cell-based. Put shortly: as §1

Experiment [2] addresses T4, human Gcg receptor (hGcgR) (Homo sapiens, UniProt P47871).
T4 construct: expressed in transfected cells; crude membranes
The experiment in a line: [125I]-Glucagon binding, SPA with membranes of HEK293 cells expressing hGcgR.

A further experiment addresses hGLP-1R (Homo sapiens, UniProt P43220). The experiment in a line: Functional cAMP formation (HTRF) in HEK-293 clonal cells expressing hGLP-1R, 0.1% bovine casein, without or with 1.0% human serum albumin. The class given is cell-based. More on the design: expressed in transfected cells. The settings on record: 37° C. Put shortly:
as §1

By Ki is commonly meant a dissociation constant, usually derived from enzyme kinetics or from competition with a known ligand. Broadly, the EC50 is the midpoint of the concentration-response curve. Broadly, the Emax is the greatest response seen or fitted, relative to the assay's reference.

Read-outs that look alike come from different tables or passages of the source. A value given as a limit tells only on which side of the number the result lay.

T4 sequence (P47871 26-477): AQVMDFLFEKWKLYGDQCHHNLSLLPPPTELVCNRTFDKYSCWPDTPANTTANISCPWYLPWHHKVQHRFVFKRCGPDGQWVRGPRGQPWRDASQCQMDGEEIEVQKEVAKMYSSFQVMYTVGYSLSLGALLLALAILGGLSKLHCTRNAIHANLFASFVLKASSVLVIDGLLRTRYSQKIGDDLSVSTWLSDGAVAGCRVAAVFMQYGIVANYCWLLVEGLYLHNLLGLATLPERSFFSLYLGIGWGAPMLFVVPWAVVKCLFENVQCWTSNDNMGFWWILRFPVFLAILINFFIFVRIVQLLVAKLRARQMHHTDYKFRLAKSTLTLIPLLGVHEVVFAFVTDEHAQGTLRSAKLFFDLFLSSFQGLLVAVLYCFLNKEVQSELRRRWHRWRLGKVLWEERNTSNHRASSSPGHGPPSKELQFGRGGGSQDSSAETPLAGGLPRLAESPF
T2 sequence (P47871 26-477): as above
Chain of hGLP-1R (P43220 24-463): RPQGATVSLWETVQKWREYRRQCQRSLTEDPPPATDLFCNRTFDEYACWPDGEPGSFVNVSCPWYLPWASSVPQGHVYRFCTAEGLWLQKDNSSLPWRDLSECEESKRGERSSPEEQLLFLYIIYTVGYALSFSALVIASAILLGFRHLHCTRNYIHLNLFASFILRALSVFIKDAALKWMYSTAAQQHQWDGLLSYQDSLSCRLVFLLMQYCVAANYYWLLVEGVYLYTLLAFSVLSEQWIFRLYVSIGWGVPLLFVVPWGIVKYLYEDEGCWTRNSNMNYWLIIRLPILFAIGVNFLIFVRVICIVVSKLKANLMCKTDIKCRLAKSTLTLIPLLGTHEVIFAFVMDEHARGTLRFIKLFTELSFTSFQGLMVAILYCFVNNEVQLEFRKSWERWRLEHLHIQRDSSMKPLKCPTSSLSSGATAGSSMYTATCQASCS

Turning to `CC[C@H](C)[C@H](NC(=O)[C@H](CC(C)C)NC(=O)[C@](C)(Cc1ccc(O)cc1)NC(=O)[C@H](CCCCNC(=O)COCCOCCNC(=O)COCCOCCNC(=O)CC[C@H](NC(=O)CCCCCCCCCCCCC(=O)O)C(=O)O)NC(=O)[C@@H](NC(=O)[C@H](Cc1ccccc1)NC(=O)[C@H](CCC(=O)O)NC(=O)C(C)(C)NC(=O)[C@H](CCC(N)=O)NC(=O)[C@H](C)NC(=O)[C@H](CCC(N)=O)NC(=O)[C@H](CCCN)NC(=O)[C@H](CC(=O)O)NC(=O)[C@H](CC(C)C)NC(=O)[C@](C)(CC(C)C)NC(=O)[C@@H](NC(=O)C(C)(C)NC(=O)[C@H](Cc1ccncc1)NC(=O)[C@H](CC(=O)O)NC(=O)[C@H](CO)NC(=O)[C@@H](NC(=O)[C@](C)(Cc1ccccc1F)NC(=O)[C@@H](NC(=O)CNC(=O)[C@H](CCC(=O)O)NC(=O)C(C)(C)NC(=O)[C@@H](N)Cc1ccc(O)cc1)[C@@H](C)O)[C@@H](C)O)[C@@H](C)CC)[C@@H](C)CC)C(=O)N[C@@H](CCCCNC(=O)COCCOCCNC(=O)COCCOCCNC(=O)CC[C@H](NC(=O)CCCCCCCCCCCCC(=O)O)C(=O)O)C(=O)NCC(=O)NCC(=O)N1CCC[C@H]1C(=O)N[C@@H](CO)C(=O)N[C@@H](CO)C(=O)NCC(=O)N[C@@H](C)C(=O)N1CCC[C@H]1C(=O)N1CCC[C@H]1C(=O)N1CCC[C@H]1C(=O)N[C@@H](CO)C(N)=O` [Example 411], the Ki in experiment [1] (human GIPR, geometric mean (SEM, n), read-out: Binding Affinity Ki, nM (SEM, n) hGIPR) was 0.0375 nM; in experiment [2] (human GcgR, geometric mean (SEM, n), read-out: Binding Affinity Ki, nM (SEM, n) hGCGR) it was greater than 957 nM. The EC50 on hGCGR (cAMP, 37° C., 0.1% bovine casein (no human serum albumin), geometric mean, read-out: hGCGR EC50, nM (SEM, n)) is greater than 9950 nM; at hGCGR (cAMP, 37° C., 0.1% bovine casein and 1.0% human serum albumin, geometric mean (SEM, n), read-out: hGCGR EC50, nM (SEM, n)) it was greater than 9950 nM; at hGIPR (cAMP, 37° C., 0.1% bovine casein (no human serum albumin), geometric mean, read-out: hGIPR EC50, nM (SEM, n)), 0.0102 nM; at hGIPR (cAMP, 37° C., 0.1% bovine casein and 1.0% human serum albumin, geometric mean (SEM, n), read-out: hGIPR EC50, nM (SEM, n)), 1.09 nM; at hGLP-1R (cAMP, 0.1% bovine casein (no human serum albumin), geometric mean, read-out: hGLP-1R EC50, nM (SEM, n)), 0.167 nM; on hGLP-1R (cAMP, 0.1% bovine casein and 1.0% human serum albumin, geometric mean (SEM, n), read-out: hGLP-1R EC50, nM (SEM, n)) it was 11.4 nM. Besides, the Emax came to 84.6% at hGIPR (HEK293, cAMP, 37° C., 0.1% bovine casein and 1.0% human serum albumin, percent of maximal response to GIP(1-42)NH2, read-out: hGIPR Emax, % ± SEM); 110% at hGLP-1R (HEK293, cAMP, 0.1% bovine casein, percent of maximal response to GLP-1(7-36)NH2, arithmetic mean, read-out: hGLP-1R Emax, % ± SEM).

Take `CC[C@H](C)[C@H](NC(=O)[C@H](CC(C)C)NC(=O)[C@](C)(Cc1ccc(O)cc1)NC(=O)[C@@H](CCC(=O)O)NC(=O)[C@@H](NC(=O)[C@H](Cc1ccccc1)NC(=O)[C@H](CCC(=O)O)NC(=O)C(C)(C)NC(=O)[C@H](CCC(N)=O)NC(=O)[C@H](C)NC(=O)[C@H](CCCCNC(=O)COCCOCCNC(=O)CC[C@H](NC(=O)CCCCCCCCCOc1ccc(C(=O)O)cc1)C(=O)O)NC(=O)[C@H](CCCN)NC(=O)[C@H](CC(=O)O)NC(=O)[C@H](CC(C)C)NC(=O)[C@](C)(CC(C)C)NC(=O)[C@@H](NC(=O)[C@H](CO)NC(=O)[C@H](Cc1ccncc1)NC(=O)[C@H](CC(=O)O)NC(=O)[C@H](CO)NC(=O)[C@@H](NC(=O)[C@](C)(Cc1ccccc1F)NC(=O)[C@@H](NC(=O)CNC(=O)[C@H](CCC(=O)O)NC(=O)C(C)(C)NC(=O)[C@@H](N)Cc1ccc(O)cc1)[C@@H](C)O)[C@@H](C)O)[C@@H](C)CC)[C@@H](C)CC)C(=O)N[C@@H](CCC(=O)O)C(=O)NCC(=O)NCC(=O)N[C@@H](CCCCNC(=O)COCCOCCNC(=O)CC[C@H](NC(=O)CCCCCCCCCOc1ccc(C(=O)O)cc1)C(=O)O)C(=O)N[C@@H](CO)C(=O)N[C@@H](CO)C(=O)NCC(=O)N[C@@H](C)C(=O)N1CCC[C@H]1C(=O)N1CCC[C@H]1C(=O)N1CCC[C@H]1C(=O)N[C@@H](CO)C(N)=O` [Example 12]: the Ki came out at 0.0575 nM in experiment [1] and 213 nM in experiment [2]. For the same molecule, the EC50 on hGCGR (hGCGR EC50, nM (SEM, n), 0.1% bovine casein and 1.0% human serum albumin, 37° C., geometric mean) is greater than 9950 nM; on hGCGR (hGCGR EC50, nM (SEM, n), cAMP, incubated at 37° C., 0.1% bovine casein (no human serum albumin), geometric mean), greater than 9950 nM; at hGIPR (hGIPR EC50, nM (SEM, n), 0.1% bovine casein and 1.0% human serum albumin, 37° C., geometric mean) it was 0.745 nM; at hGIPR (hGIPR EC50, nM (SEM, n), cAMP, incubated at 37° C., 0.1% bovine casein (no human serum albumin), geometric mean) it was 0.0127 nM; on hGLP-1R (hGLP-1R EC50, nM (SEM, n), 0.1% bovine casein and 1.0% human serum albumin, geometric mean), 20.3 nM.

For the origin of these results see patent US20230265151A1, “GIP/GLP1 CO-AGONIST COMPOUNDS” (priority 2020, published 2023).
